Like-named read-outs stand apart in the source and are kept apart here.
What was measured:
[1] = system: eggs of Aedes aegypti; conditions: Cline 1972; cited from earlier work
[2] = system: Aedes aegypti mosquitoes; assay: Olfactometer vapor phase repellency; format: in vivo; conditions: FIG. 1
Excerpt: As frequently seen in homologous series of insect repellents (Skinner, W. A. and Johnson, H. L. The design of insect repellents. In: Drug Design, Vol. 10, E J Ariens, Ed., Academic Press, New York, pp. 277-305, 1980), activity at lower chain length is limited by lack of persistence due to high volatility. Activity at higher chain length is limited by lack of volatility, as mosquito repellents are required to have a minimum effective evaporation rate (Reifenrath, W. G. and Robinson, P. B. In Vitro Skin Evaporation and Penetration Characteristics of mosquito repellents. J. Pharm. Sci, 71:1014-1018, 1982; Reifenrath, W. G. and Spencer, T. S. Evaporation and penetration from skin. In: Percutaneous Absorption Mechanisms Methodology Drug Delivery, R L Bronaugh and H I Maibach, Eds., 1st Ed., Marcel Dekker, New York, pp. 305-325, 1985).
The straight chain fatty acids octanoic, nonanoic, decanoic, undecanoic, and lauric are designated as C8 through C12, respectively; 3-methylpentanoic acid as 3MPENTAN, 3-methyl-2-pentenoic acid as 3M2PENTEN, 2-octenoic acid as 2OCTEN, 3-methyl-2-octenoic acid as 3M2OCTEN, and 4-methyloctanoic acid as 4MOCTAN. N,N-Diethyl-m-toluamide is designated as DEET.

[3] = system: house fly larvae; conditions: Levinson and Simon Ascher 1954; cited from earlier work
[4] = emulsion formulations; cited from earlier work
[5] = 20° C.; cited from earlier work
[6] = system: Aedes aegypti mosquitoes
Method: Fifteen female Aedes aegypti mosquitoes were placed in the dishes and their fate observed over a 48 hour period.
To further investigate the incapacitating and lethal effect of the C8910 composition, water dispersions of the same formulation of C8910 were tested in the laboratory against Aedes aegypti mosquitoes. Graded dilutions of C8910/Kaolin-P were prepared by dispersing the powder in water (2 grams of powder in 100 ml of water, the concentration used in the field) where the lowest concentration was 0.0075% (Table 1). One ml of each dispersion was evenly pipetted over a disk of filter paper (9 cm diameter, Whatman No. 1) contained in disposable petri dishes. Approximately 15 female Aedes aegypti mosquitoes, 6-10 days of age, were placed in the Petri dishes and covered to prevent mosquito escape. The dishes were maintained in an environmental chamber (76-80° F. and approximately 60% humidity) and observations were made of incapacitation and mortality at various times after treatments (Table 1).

[7] = system: flies
[8] = system: Aedes aegypti; assay: Minimum effective dose to repel mosquitoes, applied to the skin; format: in vivo
Method: Notes: • 1. Even at the lowest dose (1.18 ug/cm2), there are behavioral effects from […]. […] After 16 minutes exposure, mosquitoes were transferred to fresh plates containing only distilled water. […] […] and DEET (N,N-diethyl-m-toluamide) have similar potencies to repel Aedes aegypti when both are applied to the skin. The minimum effective dose (MED) of […] to repel mosquitoes is estimated at 25 ug/cm^2, the measured MED value for DEET.

[9] = system: Aedes aegypti instar IV larvae and pupae; conditions: Quraishi and Thorsteinson 1965; cited from earlier work
[10] = 0.3000% in water dispersion, dose 47 ug/cm2

For `C=CCCCCCCCCC(=O)O` [undecylenic], the ovicidal activity [1] is given as “ovicidal activity”.
For `CCCCCCCCC(=O)O` [C9, nonanoic acid], the ovicidal activity [1] is listed as “ovicidal activity” and the repellency in olfactometer [2] is listed as “at or near the top of the repellency”.
In the case of `CCCCCCCCCCC(=O)O` [undecanoic acid], the “larvicidal activity for housefly larvae” value [3] is listed as “declining activity”.
In the case of `CC1(C)C(C=C(Cl)Cl)C1C(=O)OCc1cccc(Oc2ccccc2)c1` (stereo not shown) [permethrin], the skin absorption [4] is given as “about 30%”, the vapor pressure [5] is given as “about 10^−8 mm Hg” and the reversibility of incapacitation ([6]; dose of 4.7 ug/cm^2) is given as “irreversible”. The reversibility of incapacitation ([7]; dose of 4.7 ug/cm^2) was “irreversible”.
For `CCCCCCCC(=O)O` [C8, octanoic acid], the ovicidal activity [1] is listed as “ovicidal activity” and the repellency in olfactometer [2] is listed as “at or near the top of the repellency”.
With `CC(O)C(=O)O` (stereo not shown) [Lactic Acid, lactic acid] the “% Incapac. in 10 m exp.” value [6, 10] was 0%, the “% Incapac. in 25 m exp.” value [6, 10] was 0% and the “% Incapac. in 24 h exp.” value [6, 10] was 17%. The “% motality at 24 hours” value [6, 10] was 17%, the “% motality at 48 hours” value [6, 10] was 17% and the “% Incapac. in 10 m exp.” value ([6]; 0.3000% in water dispersion, dose 47 ug/cm2, listed as lactic acid) was “no incapacitation”. For the same compound, the “number dead, noted beside % Incapac. in 24 h exp.” value ([6]; 0.3000%, dose 47 ug/cm2) was “(2 dead)” and the toxicity to flies ([7]; test of acidic pH) was “nontoxic to flies”.
For `CCN(CC)CC(=O)Nc1c(C)cccc1C` [lidocaine free base, lidocaine], the fly incapacitation ([7]; freshly prepared aqueous emulsions 47 ug/cm^2 or 15% concentration in mineral oil) was “did not cause fly incapacitation”.
In the case of `CCN(CC)C(=O)c1cccc(C)c1` [DEET, N,N-diethyl-m-toluamide], the “minimum effective dose (MED) to repel mosquitoes” value [8] is reported as 25 ug/cm^2, the immediate incapacitation ([6]; 47 ug/cm^2) is reported as “did not involve immediate incapacitation” and the “mortality at 24 hours” value ([6]; 47 ug/cm^2) is reported as “did cause fly and mosquito mortality”. The immediate incapacitation ([7]; 47 ug/cm^2) was “did not involve immediate incapacitation” and the “mortality at 24 hours” value ([7]; 47 ug/cm^2) was “did cause fly and mosquito mortality”.
For `CCCCCCCCCC(=O)O` [C10, decanoic acid], the repellency in olfactometer [2] was “at or near the top of the repellency”.
For `CCCCCCCCCCCC(=O)O` [Lauric acid, lauric acid], the “larvicidal activity for housefly larvae” value [3] is given as “declining activity”, the “toxicity to instar IV larvae and pupae” value [9] is given as “not” and the toxicity to flies ([7]; EC formulation) is given as “non-toxic”.

Source: US9545100B2, “Pesticidal compositions for insects and arthropods” (Stratacor, Inc., priority 2009, dated 2017)
